The values below come from ChEMBL document CHEMBL5303304, “EUbOPEN Chemogenomics Library - IncuCyte” (2023).

Holding throughout (format): toxicity, cell-based
For one series, the system named is Fibroblast. Nature of the series: Incucyte cell viability with human fibroblast. The note with it: 24 h, 10 µM, compound concentration 10 uM, replicate number 1.
Another series relates to U2OS. Nature of the series: Incucyte cell viability with U2OS. As to conditions: human, 10 µM, compound concentration 10 uM.
Another series relates to HEK-293T. The series is described as follows: Incucyte cell viability with HEK293T. As to conditions: human, 10 µM, compound concentration 10 uM.
Also: unitless GR value; below 1 slowed growth and below 0 cell loss.

`CS(C)(=O)=Nc1ccc(-c2ccc(-c3nc4[nH]c(O[C@@H]5CO[C@H]6[C@@H]5OC[C@H]6O)nc4cc3Cl)cc2)cc1`: the “Growth Rate” value in the series on Fibroblast stood at 0.75; in the series on U2OS (0 h, replicate number 1) it was 0.01; in the series with U2OS (6 h, replicate number 1), 0.36; in the series with U2OS (6 h, replicate number 2), 0.94; in the series with U2OS (12 h, replicate number 1), 0.65; in the series with U2OS (12 h, replicate number 2) it was 0.92. For the same compound, the “Growth Rate” value in the series with U2OS (18 h, replicate number 1) turned out to be 0.82; in the series with U2OS (18 h, replicate number 2), 0.97; in the series with U2OS (24 h, replicate number 1), 0.77; in the series on U2OS (24 h, replicate number 2), 0.98.
Consider `CC#CCC(C)[C@H](O)/C=C/[C@@H]1[C@H]2C/C(=C/CCCC(=O)O)C[C@H]2C[C@H]1O` (some centres not stated) [ILOPROST], for which the “Growth Rate” value is reported as 0.86 in the series on U2OS (24 h, replicate number 1); 0.66 with HEK-293T (0 h, replicate number 1); 0.38 in the series on HEK-293T (0 h, replicate number 2).
Take `Cl.Cl.Nc1nccc(-c2c(-c3ccc(F)cc3)ncn2C2CCCCC2)n1`: the “Growth Rate” value with U2OS (6 h, replicate number 1) was determined as 0.19; in the series with U2OS (12 h, replicate number 1) it was 0.8; in the series on U2OS (18 h, replicate number 1), 0.93; in the series on U2OS (18 h, replicate number 2), 0.84; in the series on U2OS (24 h, replicate number 1), 0.95; in the series on U2OS (24 h, replicate number 2), 0.81. Also, the “Growth Rate” value in the series with HEK-293T (0 h, replicate number 2) worked out at 0.73; in the series on HEK-293T (6 h, replicate number 1) it was 0.63; in the series with HEK-293T (6 h, replicate number 2) it was 0.51; in the series with HEK-293T (12 h, replicate number 1), 0.99; in the series with HEK-293T (12 h, replicate number 2), 0.49; in the series on HEK-293T (18 h, replicate number 1), 0.99. Moreover, the “Growth Rate” value in the series on HEK-293T (18 h, replicate number 2) was 0.44; in the series on HEK-293T (24 h, replicate number 1) it was 0.95; in the series with HEK-293T (24 h, replicate number 2), 0.51.
Take `O=C(O)c1cccc(C2=C(c3cc(Cl)ccc3OCc3ccc(F)cc3F)CCC2)n1`: the “Growth Rate” value worked out at 1 in the series with U2OS (12 h, replicate number 2) and 0.79 with HEK-293T (0 h, replicate number 1).
As to `O=C(Nc1cc2cc[nH]c(=O)c2cc1Cl)[C@H]1CNC[C@@H]1c1cccnc1.O=C(O)C(F)(F)F`, in the series on HEK-293T (0 h, replicate number 1), the “Growth Rate” value is on record as -0.73.
Consider `CC(C)(O)[C@H](F)CN1Cc2cc(NC(=O)c3cnn4cccnc34)c(N3CCOCC3)cc2C1=O`, for which the “Growth Rate” value is -0.84 in the series on U2OS (0 h, replicate number 1); 0.95 with U2OS (12 h, replicate number 2); 0.95 in the series on U2OS (18 h, replicate number 2); 0.93 in the series on U2OS (24 h, replicate number 2); 0.15 in the series on HEK-293T (0 h, replicate number 2); 0.89 with HEK-293T (6 h, replicate number 1). The “Growth Rate” value in the series with HEK-293T (6 h, replicate number 2) amounted to 0.72; in the series on HEK-293T (12 h, replicate number 1), 1; with HEK-293T (12 h, replicate number 2), 0.86; in the series with HEK-293T (18 h, replicate number 2) it was 0.82; with HEK-293T (24 h, replicate number 1) it was 0.96; in the series on HEK-293T (24 h, replicate number 2) it was 0.85.
For the compound `CNc1oc(-c2cccc3ccccc23)nc1C#N`, the “Growth Rate” value with U2OS (12 h, replicate number 2) is given as 0.93; in the series on U2OS (18 h, replicate number 2) it was 0.92; in the series with U2OS (24 h, replicate number 2), 0.99; in the series on HEK-293T (0 h, replicate number 2), -0.92.
Consider `COc1nc2ccc([C@@](O)(c3ccc(Cl)cc3)c3cncn3C)cc2c(Cl)c1Cc1ccc(-n2cccn2)cc1` [JNJ-53721590], for which the “Growth Rate” value with U2OS (0 h, replicate number 1) is given as -1; in the series with U2OS (6 h, replicate number 1) it was -0.25; in the series on HEK-293T (0 h, replicate number 1), -0.99; in the series on HEK-293T (0 h, replicate number 2), -1.
For `COc1cc(Nc2cnc(C#N)c(O[C@H](C)CN(C)C)n2)ncc1-c1cnn(C)c1`, the “Growth Rate” value in the series with U2OS (0 h, replicate number 1) is given as -1; in the series with U2OS (0 h, replicate number 2) it was 0.66; in the series with U2OS (6 h, replicate number 2) it was 0.42; in the series on U2OS (12 h, replicate number 2), 0.82; in the series on U2OS (18 h, replicate number 2), 0.67; in the series with U2OS (24 h, replicate number 2), 0.43. In addition, the “Growth Rate” value is listed as -1 in the series with HEK-293T (0 h, replicate number 1); -0.51 in the series with HEK-293T (0 h, replicate number 2); 0.63 with HEK-293T (6 h, replicate number 1); -0.18 with HEK-293T (6 h, replicate number 2); -0.1 with HEK-293T (12 h, replicate number 1); -0.4 in the series with HEK-293T (12 h, replicate number 2). Moreover, the “Growth Rate” value with HEK-293T (18 h, replicate number 1) was -0.17; in the series with HEK-293T (18 h, replicate number 2) it was -0.32; with HEK-293T (24 h, replicate number 1), -0.06; in the series with HEK-293T (24 h, replicate number 2), -0.22.
